Experimental data taken from patent US9718771B2, “Aniline derivative, pharmaceutical composition containing same, and use thereof” (Kissei Pharmaceutical Co., Ltd., priority 2014, dated 2017).

Columns and labels:
[1] = system: Naïve T cells-transferred colitis model; assay: Drug efficiency evaluation in naïve T cells-transferred colitis model; assay type: in vivo; settings: SCID mice, mean ± standard error; for Body weight change ratio (%): oral twice a day from day 15, 15 mg/kg, day 30; for Colon weight (%) / DAI score (%): oral twice a day, 15 mg/kg, vehicle group = 100%
Method: The Drug Efficiency Evaluation in Naïve T Cells—Transferred Colitis Model
(1) Purification of CD45RB Positive Naïve T Cells and Transfer the Cells into SCID Mice
After female BALB/c mice (Charles River Japan, 8-weeks-old in use) were sacrificed by blood removal from cervical vein under inhalation anesthesia with isoflurane spleens were harvested from these mice. Spleens were washed with ice-cold PBS (phosphate buffered saline, Invitrogen) and stored in 50 mL tube containing PBS on ice. Spleens stored on ice were mashed with the upper portion of slide glasses inside a biological safety cabinet, and filtered through a cell filter (pore size 70 μm), and the filtrate was centrifuged at 500×g, room temperature for 5 minutes. After the supernatant was removed, 12 mL of RBC lysis buffer (Biolegend) was added to a cell pellet and it was resuspended and left for about 3 minutes. The supernatant was removed after centrifugation and the hemolytic process was performed by repeating same procedure once again.
The cells were purified with Mouse Naive T cell CD4^+/CD62L^+/CD44^low Colum Kit (R&D systems). The cells performed with the hemolytic process, were suspended by column buffer attached to the above Column Kit, and purified through a cell filter (pore size 70 μm) after centrifugation at 500×g, room temperature for 5 minutes. The cells were resuspended with column buffer, and antibody cocktails attached to the above Column Kit were added to this and mixed. After that, the cells were purified according to the protocol of the Column Kit.
Next, purification of CD45RB positive cells was performed by MACS (registered mark) separator (Miltenyi Biotec). The purified cells were suspended with 2 mL of PBS containing 0.5% BSA, and reacted at room temperature for 15 minutes after adding FITC (fluorescein isothiocyanate)-labeled anti-CD45RB antibody (Biolegend). After washing two times with PBS containing 0.5% BSA by centrifugation, the cells were resuspended with 2 mL of PBS containing 0.5% BSA and reacted at room temperature for 10 minutes after adding anti-FITC microbeads (Miltenyi Biotec). After washing one time with PBS containing 0.5% BSA by centrifugation, the cells were resuspended with 3 mL of PBS containing 0.5% BSA, and a fraction of CD45RB positive cells was purified according to the protocol of MACS (registered trademark) separator. In the process of elution after detached from MACS (registered trademark) separator, the cells were separated with 5 mL of PBS. The cell suspension was washed one time by centrifugation with PBS, resuspended by appropriate PBS and measured the cell number as naïve T cells suspension for transfer. Female CB17/Icr-scid/scid Jcl (SCID mice) (Charles River Japan, 8-weeks-old in use) were induced colitis by intraperitoneal administration of 500 μL (divided into 250 μL two times) of naïve T cells suspension prepared at 6×10^5 cells/mL by PBS.
(2) Measurement of Body Weight and Procedure for Administration of Drugs
Body weights were measured at day 1, 8 and 15 as day 0 when naïve T cells were transferred to mice. Mice were grouped evenly, based on body weight change at day 15. The measurement of body weight was performed two times a week after day 15. A solvent (Vehicle) and test compounds were administered twice a day from the evening of day 15. The administration solution was prepared as indicated below. Firstly, 0.5% methyl cellulose (Wako pure chemicals) of 1/10 volume of total volume was added to test compound, and a suspension was prepared by sonication. […] After that, administration solutions for test compounds were prepared by sonication while adding distilled water of 9/10 volume of total volume to these suspensions in several batches. A solution prepared in the same volume ratios of 0.5% methyl cellulose and distilled water as administration solutions for test compounds was used as vehicle. Administration solutions for vehicle or test compounds were orally administered to mice at 5 mL/kg.

[2] = system: EAE model; assay: Drug efficiency evaluation in experimental autoimmune encephalomyelitis (EAE) model; assay type: in vivo; settings: DA rats, oral twice a day, 15 mg/kg, day 0 to day 13; mean ± standard error
Method: The Drug Efficiency Evaluation in Experimental Autoimmune Encephalomyelitis (EAE) Model
An EAE model (experimental autoimmune encephalomyelitis, hereinafter referred to as EAE), which is widely used as an animal model reflecting the pathological condition of human multiple sclerosis was prepared using DA rats (Japan SLC, 8 to 9-week-old in use) as described below, and the effect of test compound was confirmed.
Firstly, the emulsion for immunization was prepared by the method described below. After rats were sacrificed by exsanguination from the carotid artery under anesthesia of isoflurane, two spinal cords and a brain were collected. […]
The EAE score was evaluated daily to day 13 as day 0 when DA rats were immunized. The EAE score was evaluated as 0-5 points: 0 points: no symptoms, 1 point: walkable straight with normal our limbs but complete loss of tail tonus, 2 points: slight paralysis of a limb (especially hind limbs) and walkable wobbly, 3 points: full paralysis of two limbs (especially hind limbs) and walkable with a limp, 4 points: tetraplegia, moribund or abasia, 5 points: dead.
The area under the curve was calculated based on the variation per day of EAE score during evaluation periods from immunization day 0 to day 13, and used as an index for effects of test compounds.

Structure (SMILES)	Body weight change ratio (%) [1]	Colon weight (%) [1]	DAI score (%) [1]	Area under the curve of EAE score [2]
CCN(c1ccc(Cl)c(C)c1)C(C)c1ccc(C)c(CN2CC(C(=O)O)C2)c1 (stereo not shown) [Compound 2-6, 1-(5-{1-[(4-Chloro-3-methylphenyl)(ethyl)amino]ethyl}-2-methylbenzyl)azetidine-3-carboxylic acid]	1.7 ± 1.1 %	36.8 ± 17.1 %	24.3 ± 11.8 %	–
CCN(c1ccc(Cl)c(C(F)(F)F)c1)C(C)c1ccc(C)c(CN2CC(C(=O)O)C2)c1 (stereo not shown) [Compound 2-7, 1-(5-{1-[(4-Chloro-3-trifluoromethylphenyl)(ethyl)amino]ethyl}-2-methylbenzyl)-azetidine-3-carboxylic acid]	1.6 ± 1.2 %	32.4 ± 14.2 %	22.1 ± 14.8 %	6.1 ± 1.6
